Measured values reported in patent publication US8609719B2, “Propargylated aminoindans, processes for preparation, and uses thereof” (priority 2006, dated 2013).
Structures can show the parent of a compound that is named as a salt.

Tests used:
[1] = Pharmacokinetic analysis of ladostigil and metabolites in Alzheimer's disease patients; conditions: human, in vivo, 100 mg; for Cmax / AUC / AUC(0-t): after ladostigil tartrate 100 mg twice daily; for concentration at 12 h: mean concentration at pre-dose, 12 hours after the previous dose of ladostigil tartrate; for AUC: AUC (M)
Recombinant human AChE = biological target: T1, Recombinant human AChE (Homo sapiens, UniProt P22303); experiment: Inhibition of acetylcholinesterase activity in vitro (Ellman, stopped time assay); format: biochemical
T1 construct: purchased Sigma-Aldrich Israel C-1682
Experimental: Recombinant human AChE (C-1682), acetylthiocholine iodide (AcTh, A5771), bovine serum albumin (BSA, A-2153), and 5,5′-dithiobis(2-nitrobenzoic acid) (DTNB, D8130) were obtained from Sigma-Aldrich Israel. […] AChE was dissolved in phosphate buffer pH 8.0 containing 0.01% sodium azide NaAz and 1 mM EDTA and diluted to give a concentration of 15 units/ml. This solution was divided into aliquots of 0.5 ml, which were stored at −70° C. until use.
The inhibitory activity against AChE was determined by the method of Ellmann et al. (Biochemical Pharmacology, 1961 (7) 88-95) using AcTh as a substrate. To characterize the carbamoylation step, a traditional stopped time assay was performed, in which AChE was incubated at 37° C. with a minimum of 5 different concentrations of inhibitor in the assay buffer, and aliquots were transferred to an ELISA multiscan microplate reader (Labsystems) at various times for the determination of residual AChE activity, with Ascent PC software. The rate of reaction was measured at 412λ at 37° C. in 0.2 ml wells containing AChE 0.023 units per ml, DTNB 0.4-0.5 mM, AcTh 0.50 or 1 mM and BSA (0.05%) in 50 mM phosphate buffer as described above. Measurements were made every 5 min for up to 5 hours.
The inhibition of AChE by carbamates involves the formation of a reversible complex (EOH•CX), followed by carbamoylation of the enzyme to form (EOC) and a leaving group (HX). The carbamoylated enzyme is then hydrolyzed by water to regenerate the free enzyme (EOH).
The formation of the reversible complex is represented by the equilibrium constant: KD. For the carbamoylation phase of the inhibition process the unimolecular rate constant is represented by kmax, and the bimolecular rate constant by ki.

MAO-A = biological target: T2, MAO-A (Rattus norvegicus, UniProt P21396); experiment: Inhibition of MAO activity in vitro (5-HT substrate); format: biochemical
T2 construct: from tissue; host or cells: brain, liver and intestine (duodenum) of dosed rats
T2 sequence (P21396 1-526): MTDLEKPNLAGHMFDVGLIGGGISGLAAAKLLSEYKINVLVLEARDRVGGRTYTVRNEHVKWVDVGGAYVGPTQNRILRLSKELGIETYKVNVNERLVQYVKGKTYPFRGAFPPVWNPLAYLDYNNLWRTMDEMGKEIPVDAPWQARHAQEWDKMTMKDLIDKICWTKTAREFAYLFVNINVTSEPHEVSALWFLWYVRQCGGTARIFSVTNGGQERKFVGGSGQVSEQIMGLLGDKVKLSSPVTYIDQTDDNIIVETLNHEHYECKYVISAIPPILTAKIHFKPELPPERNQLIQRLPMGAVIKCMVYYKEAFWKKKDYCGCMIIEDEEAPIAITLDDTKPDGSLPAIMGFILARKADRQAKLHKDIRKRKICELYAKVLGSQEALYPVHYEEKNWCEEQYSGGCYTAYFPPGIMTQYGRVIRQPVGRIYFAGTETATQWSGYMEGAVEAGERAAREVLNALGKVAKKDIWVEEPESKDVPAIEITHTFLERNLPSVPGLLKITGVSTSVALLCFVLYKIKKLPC
Experimental: The MAO enzyme source was a homogenate of rat brain in 0.3M sucrose. The homogenate was diluted appropriately, and pre-incubated with serial dilutions of test compounds—diluted in phosphate buffer containing clogyline when 2-phenylethylamine (PEA) is the substrate, and diluted in phosphate buffer containing selegiline when 5-hydroxytryptamine (5-HT) is the substrate—for 60 minutes at 37° C. 14C-Labeled substrates (PEA for MAO-B determination and 5-HT for MAO-A determination) were then added, and the incubation continued for a further 20 minutes (PEA) or 30 minutes (5-HT). Substrate concentrations used were 10 μM (PEA) and 100 uM (5-HT). Enzyme concentration was chosen so that not more than 10% of the substrate was metabolized during the course of the reaction. Deaminated products were extracted into toluene-ethyl acetate (1:1 v/v) containing 0.4% (w/v) 2,5-diphenyloxazole (ppo) prior to determination by liquid scintillation counting. Radioactivity in the eluate indicated the production of neutral and acidic metabolites formed as a result of MAO activity. Activity of MAO in the sample was expressed as a percentage of control activity in the absence of inhibitor after subtraction of appropriate blank values. The activity determined using PEA as substrate is referred to as MAO-B, and that determined using 5-HT as MAO-A.
Concentrations of each inhibitor producing 50% inhibition of substrate metabolism (IC50) were calculated from the inhibition curves, and are shown in Table 1.

T1 sequence (P22303 32-614): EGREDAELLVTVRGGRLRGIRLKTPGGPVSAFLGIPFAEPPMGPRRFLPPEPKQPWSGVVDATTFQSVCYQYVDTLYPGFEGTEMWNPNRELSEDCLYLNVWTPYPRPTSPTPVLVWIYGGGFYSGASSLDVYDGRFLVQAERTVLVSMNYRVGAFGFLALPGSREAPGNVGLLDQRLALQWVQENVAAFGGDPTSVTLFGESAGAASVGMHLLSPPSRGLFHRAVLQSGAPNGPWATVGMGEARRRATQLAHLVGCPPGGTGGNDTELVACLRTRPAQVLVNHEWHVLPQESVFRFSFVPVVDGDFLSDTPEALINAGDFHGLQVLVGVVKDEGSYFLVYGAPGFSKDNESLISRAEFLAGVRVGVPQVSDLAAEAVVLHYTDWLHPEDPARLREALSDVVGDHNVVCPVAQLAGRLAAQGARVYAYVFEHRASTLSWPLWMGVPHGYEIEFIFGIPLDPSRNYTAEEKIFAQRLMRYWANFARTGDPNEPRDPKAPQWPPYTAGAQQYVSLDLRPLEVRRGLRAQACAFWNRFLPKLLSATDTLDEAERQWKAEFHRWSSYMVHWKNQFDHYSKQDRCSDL

C#CCN[C@@H]1CCc2ccc(OC(=O)NC)cc21 [R-MCPAI, Methyl-carbamic acid 3-R-(prop-2-ynylamino)-indan-5-yl ester hydrochloride]
half-life ([1]; both): 1.39 h
Cmax ([1]; both, Cmax (M), mean, mean of patients, maintenance analysis Week 4): 1.29e-06 M
Cmax ([1]; both, Cmax (T), mean, mean of patients, termination analysis Week 9): 1.07e-06 M
concentration at 12 h ([1]; both, Cmin (M), mean of patients, maintenance analysis Week 4): 1.74e-08 M
concentration at 12 h ([1]; both, Cmin (T), mean of patients, termination analysis Week 9): 1.32e-08 M
AUC ([1]; Patient 1, maintenance analysis Week 4): 684 ng·h/mL
AUC ([1]; Patient 2, maintenance analysis Week 4): 103 ng·h/mL
AUC ([1]; Patient 3, maintenance analysis Week 4): 596 ng·h/mL
AUC ([1]; Patient 4, maintenance analysis Week 4): 764 ng·h/mL
AUC ([1]; Patient 5, maintenance analysis Week 4): 491 ng·h/mL
AUC ([1]; Patient 6, maintenance analysis Week 4): 630 ng·h/mL
AUC ([1]; Patient 7, maintenance analysis Week 4): 212 ng·h/mL
AUC ([1]; Patient 8, maintenance analysis Week 4): 304 ng·h/mL
AUC(0-t) ([1]; Patient 1, termination analysis Week 9): 493 ng·h/mL
AUC(0-t) ([1]; Patient 2, termination analysis Week 9): 789 ng·h/mL
AUC(0-t) ([1]; Patient 3, termination analysis Week 9): 621 ng·h/mL
AUC(0-t) ([1]; Patient 4, termination analysis Week 9): 487 ng·h/mL
AUC(0-t) ([1]; Patient 5, termination analysis Week 9): 551 ng·h/mL
AUC(0-t) ([1]; Patient 6, termination analysis Week 9): 947 ng·h/mL
AUC(0-t) ([1]; Patient 7, termination analysis Week 9): 584 ng·h/mL
AUC(0-t) ([1]; Patient 8, termination analysis Week 9): 343 ng·h/mL
Cmax ([1]; Cmax (M), Patient 1, maintenance analysis Week 4): 1.8e-06 M
Cmax ([1]; Cmax (M), Patient 2, maintenance analysis Week 4): 3e-07 M
Cmax ([1]; Cmax (M), Patient 3, maintenance analysis Week 4): 1.2e-06 M
Cmax ([1]; Cmax (M), Patient 4, maintenance analysis Week 4): 3e-06 M
Cmax ([1]; Cmax (M), Patient 5, maintenance analysis Week 4): 1.5e-06 M
Cmax ([1]; Cmax (M), Patient 6, maintenance analysis Week 4): 1.3e-06 M
Cmax ([1]; Cmax (M), Patient 7, maintenance analysis Week 4): 5e-07 M
Cmax ([1]; Cmax (M), Patient 8, maintenance analysis Week 4): 7e-07 M
Cmax ([1]; Cmax (T), Patient 1, termination analysis Week 9): 1.3e-06 M
Cmax ([1]; Cmax (T), Patient 2, termination analysis Week 9): 1e-06 M
Cmax ([1]; Cmax (T), Patient 3, termination analysis Week 9): 1e-06 M
Cmax ([1]; Cmax (T), Patient 4, termination analysis Week 9): 1.1e-06 M
Cmax ([1]; Cmax (T), Patient 5, termination analysis Week 9): 1.3e-06 M
Cmax ([1]; Cmax (T), Patient 6, termination analysis Week 9): 1.3e-06 M
Cmax ([1]; Cmax (T), Patient 7, termination analysis Week 9): 1e-06 M
Cmax ([1]; Cmax (T), Patient 8, termination analysis Week 9): 6e-07 M
inhibition of acetylcholinesterase, in words (Recombinant human AChE): potent inhibitors
kmax (unimolecular carbamoylation rate constant) (Recombinant human AChE; AChE, 37° C.): 0.435 min⁻¹
IC50 (MAO-A): 37 µM
